Reference: US6403605B1, “Methods for the normalization of sexual response and amelioration of long term genital tissue degradation” (Queen's University at Kingston, priority 1998, dated 2002)

Tests used:
[1] = test system: patients diagnosed with male erectile dysfunction with no major organic component; assay: Multi-center, double-blind, randomized, placebo-controlled study: duration of erection and time to erection; assay type: in vivo, human; conditions: for Duration of Erection, Difference in Means: all attempts; for Time to Erection, Kaplan-Meier Median: all attempts (60 minutes if no erection); for Time to Erection, Kaplan-Meier Estimation of Median Time to Erection (Treatment Means): attempts when erection occurred, first eight attempts
Description: A multi-center, double-blind, randomized, placebo-controlled, three-armed study was conducted on 370 patients diagnosed with male erectile dysfunction with no major organic component. For each sequence, patients received placebo in one of the treatment periods, and a dose (2 mg, 4 mg, or 6 mg) of apomorphine in the other treatment period.
During treatment periods of the study, patients and their sexual partners were instructed to attempt intercourse a minimum of twice weekly. Each time the study drug was taken, a questionnaire was completed by the patient and by the partner and mailed to the study sponsor. The questionnaire recorded the date and time the study drug was taken, an evaluation of the erection, whether or not sexual intercourse had occurred, and satisfaction associated with each attempt. The patient also completed a diary which recorded the latency and duration of erections associated with the use of the study drug and antiemetic and concomitant medication usage and any adverse effects. If an erection occurred after administration to the patient of the study drug, the duration of erection and time-to-erection were recorded in the patient diary.
The data in Table 2 also indicate a dose-dependent, statistically significant difference of duration of erection, with a difference of almost 5 minutes between patients taking the 6 mg dose and those receiving placebo.
In those cases where no erection was achieved, a value of 60 minutes time-to-erection was used in the statistical analysis. The data in Table 3 show differences in latency periods between patients receiving apomorphine and those receiving placebo, but the differences probably reflect the inclusion in the data of 60 minute values for those cases in which no erection was achieved.

female rats = assay: Studies with female rats: sexual arousal behaviors; assay type: in vivo, rat; conditions: female rats treated with combination of apomorphine and low doses of testosterone
From the text: When co-administration of an androgen is utilized in this method of the invention, the androgen is given is doses sufficient to produce plasma concentrations of about 1 nmol/L to 200 nmol/L.

[2] = Pharmacokinetic evaluation of apomorphine (FIG. 1, mean plasma concentrations after sub-cutaneous and sublingual doses)

## CN1CCc2cccc3c2[C@H]1Cc1ccc(O)c(O)c1-3 [Apomorphine, (R)-5,6,6a,7-tetrahydro-6-methyl-(4H)-dibenzo[de,g]quinoline-10,11-diol]
[1]; 2 mg apomorphine vs placebo
  Duration of Erection, Difference in Means: 1.936 min
[1]; 2 mg apomorphine vs placebo, only attempts where erection was achieved
  Duration of Erection, Difference in Mean: 1.811 min
[1]; 2 mg apomorphine, sublingual, all attempts (zero minutes if no erection)
  Duration of Erection, Mean: 5.020 min
[1]; 2 mg apomorphine
  Time to Erection, Kaplan-Meier Median: 42.17 min
  Time to Erection, Kaplan-Meier Estimation of Median Time to Erection (Treatment Means): 11.33 min
[1]; 2 mg apomorphine, only attempts where erection was achieved
  Duration of Erection, Mean: 10.82 min
[1]; 4 mg apomorphine vs placebo
  Duration of Erection, Difference in Means: 3.578 min
[1]; 4 mg apomorphine vs placebo, only attempts where erection was achieved
  Duration of Erection, Difference in Mean: 3.458 min
[1]; 4 mg apomorphine, sublingual, all attempts (zero minutes if no erection)
  Duration of Erection, Mean: 6.903 min
[1]; 4 mg apomorphine
  Time to Erection, Kaplan-Meier Median: 36.00 min
  Time to Erection, Kaplan-Meier Estimation of Median Time to Erection (Treatment Means): 12.61 min
[1]; 4 mg apomorphine, only attempts where erection was achieved
  Duration of Erection, Mean: 12.49 min
[1]; 6 mg apomorphine vs placebo
  Duration of Erection, Difference in Means: 5.138 min
[1]; 6 mg apomorphine vs placebo, only attempts where erection was achieved
  Duration of Erection, Difference in Mean: 4.925 min
[1]; 6 mg apomorphine vs placebo, only attempts where erection was achieved, listed as apomorphine
  Duration of Erection, Difference in Mean: ~5 min
[1]; 6 mg apomorphine, sublingual, all attempts (zero minutes if no erection)
  Duration of Erection, Mean: 8.393 min
[1]; 6 mg apomorphine
  Time to Erection, Kaplan-Meier Median: 31.33 min
  Time to Erection, Kaplan-Meier Estimation of Median Time to Erection (Treatment Means): 12.82 min
[1]; 6 mg apomorphine, only attempts where erection was achieved
  Duration of Erection, Mean: 13.96 min
[1]; attempts successful in achieving an erection
  difference in median time-to-erection between drug and placebo: no statistically significant difference
[1]; doses tested (2, 4, 6 mg)
  effect on duration of erection compared to placebo: significant increase in the duration of erection
Female rats
  behaviors associated with sexual arousal: exhibited lordosis, genital grooming and other behaviors typically associated with sexual arousal
[2]; 12 minutes following buccal administration
  fraction of maximum blood serum levels reached: one-fifth to one-fourth
[2]; interpolation of plasma curves for 2, 4, 6 mg up to about 20 minutes after administration
  plasma apomorphine levels sufficient to cause a therapeutic effect: less than 0.25 ng/mL
[2]; sub-lingual administration (formulation used in Tables 1-4)
  time to maximum plasma concentrations: about 60 minutes
